From patent US5358712A, “Radiopharmaceutical agents for the detection of Alzheimer's disease” (Regents of the University of Minnesota, priority 1993, dated 1994)
Values belong to the compound of their own block, whether it stands above or below them.

Columns and labels:
[1] = Blocking experiments: inhibition of radiotracer accumulation in the rat by coadministered compound; assay type: in vivo, rat (male Wistar); settings: rat, iv, rat, iv, 60 min
Method: *Animals in group 1 received an iv injection of (+)4-[^125 l]HIPP
only. For groups 2, 3, and 4, the radiotracer was coadministered with the
hydrochlorides of (+)7 (0.53 mg/kg), (-)7 (0.53 mg/kg) and vesamicol (0.3
Four groups of male Wistar rats (n=3) were used in these experiments. All animals received an iv dose of 8-10 μCi of the radiotracer in 0.1 ml of 50% aq. ethanol. Additionally, in groups 2, 3 and 4, the radiotracer was coadministered with (+)-HBrPP.HCl(1.3 μmol/kg), (-)-HBrPP.HCl(1.3 μmol/kg) and (dl)-vesamicol hydrochloride (1.1 μmol/kg), respectively. At 60 min. post-injection, blood was collected by cardiac puncture and the animals sacrificed as described above. The data was analyzed as outlined above.
NOTE: The dose of radiotracer injected was 5-7 mCi. Group I was the
control, injected with the radiotracer only. Group II included the
simultaneous injection of "cold"(dl)3-HIPP (HCl) (0.53 mg/kg). Group III
included the simultaneous injection of (dl) vesamicol (HCl) (0.31 mg/kg).
All rats were sacrificed at one hour postinjection.
NOTE: Group I was the control, injected with the radiotracer only. Group
II included the simultaneous injection of "cold"(dl)3-HIPP (HCl) (0.53
mg/kg). Group III included the simultaneous injection of (dl) vesamicol
hydrochloride (0.31 mg/kg). The dose of radiotracer was 8-9 μCi. All
rats were sacrificed at one hour postinjection.
NOTE: Group I received (+)[^125 l]13 only. Group II received the (+)
radiotracer coinjected with 0.31 mg/kg (dl)vesamicol hydrochloride. Group
III received (-)[^125 l]13 only. Group IV received the (-) radiotrace
coinjected with 0.31 mg/kg (dl)vesamicol hydrochloride. All animals were
sacrificed at one hour postinjection. The dose of radiotracer injected pe

[2] = Tissue distribution (biodistribution) of radioiodinated compound in the rat; settings: rat, iv; for tissue uptake at 1 h: 60 min; for tissue uptake at 3 h: 180 min
Method: Four groups of male Wistar rats (with four animals per group) weighing 200-350 g were used in these experiments. Each animal received, while under ether anesthesia, an intravenous injection of the radiotracer (10-20 μCi) dissolved in 0.1 ml of 50% aqueous ethanol. At 5, 30, and 60 and 180 min. post-injection, blood was collected from the anesthetized animals by cardiac puncture, and the animal was immediately sacrificed by cardiectomy. The organs and tissues of interest were harvested, transferred to preweighed tubes and counted in a Beckman gamma counter. The tubes were subsequently reweighed to give the weight of the corresponding tissues. Preweighed tubes containing ^1 -ml samples of a 1:100 dilution of the injection dose were also counted and used as reference for calculating the tissue accumulation of radioactivity. The accumulation of radiotracer was expressed as a percentage of injected dose per gram of tissue.

[3] = blood, radiotracer only (control), read-out: radioactivity in blood
[4] = brain, + (dl)-vesamicol HCl 0.3 (Table 3) or 0.31 mg/kg, read-out: radioactivity in brain
[5] = brain, radiotracer only (control), read-out: radioactivity in brain
[6] = heart, + (dl)-vesamicol HCl 0.3 (Table 3) or 0.31 mg/kg, read-out: radioactivity in heart
[7] = heart, radiotracer only (control), read-out: radioactivity in heart
[8] = kidney, + (dl)-vesamicol HCl 0.3 (Table 3) or 0.31 mg/kg, read-out: radioactivity in kidney
[9] = kidney, radiotracer only (control), read-out: radioactivity in kidney
[10] = liver, + (dl)-vesamicol HCl 0.3 (Table 3) or 0.31 mg/kg, read-out: radioactivity in liver
[11] = liver, radiotracer only (control), read-out: radioactivity in liver
[12] = lung, + (dl)-vesamicol HCl 0.3 (Table 3) or 0.31 mg/kg, read-out: radioactivity in lung
[13] = lung, radiotracer only (control), read-out: radioactivity in lung
[14] = muscle, + (dl)-vesamicol HCl 0.3 (Table 3) or 0.31 mg/kg, read-out: radioactivity in muscle
[15] = muscle, radiotracer only (control), read-out: radioactivity in muscle
[16] = spleen, + (dl)-vesamicol HCl 0.3 (Table 3) or 0.31 mg/kg, read-out: radioactivity in spleen
[17] = spleen, radiotracer only (control), read-out: radioactivity in spleen
[18] = kidney, radioactivity in kidney
[19] = muscle, radioactivity in muscle
[20] = spleen, radioactivity in spleen

tissue uptake at 1 h ([1]; blood, + (dl)-vesamicol HCl 0.3 (Table 3) or 0.31 mg/kg, read-out: radioactivity in blood): 0.12 %ID/g | tissue uptake at 1 h ([1]; blood, + cold (dl)3-HIPP HCl 0.53 mg/kg, read-out: radioactivity in blood): 0.13 %ID/g | tissue uptake at 1 h [1, 3]: 0.09 %ID/g | tissue uptake at 1 h [1, 4]: 0.26 %ID/g | tissue uptake at 1 h ([1]; brain, + cold (dl)3-HIPP HCl 0.53 mg/kg, read-out: radioactivity in brain): 0.24 %ID/g | tissue uptake at 1 h [1, 5]: 0.76 %ID/g | tissue uptake at 1 h [1, 6]: 0.13 %ID/g | tissue uptake at 1 h ([1]; heart, + cold (dl)3-HIPP HCl 0.53 mg/kg, read-out: radioactivity in heart): 0.15 %ID/g | tissue uptake at 1 h [1, 7]: 0.36 %ID/g | tissue uptake at 1 h [1, 8]: 0.55 %ID/g | tissue uptake at 1 h ([1]; kidney, + cold (dl)3-HIPP HCl 0.53 mg/kg, read-out: radioactivity in kidney): 0.62 %ID/g | tissue uptake at 1 h [1, 9]: 1.48 %ID/g | tissue uptake at 1 h [1, 10]: 0.87 %ID/g | tissue uptake at 1 h ([1]; liver, + cold (dl)3-HIPP HCl 0.53 mg/kg, read-out: radioactivity in liver): 0.71 %ID/g | tissue uptake at 1 h [1, 11]: 0.86 %ID/g | tissue uptake at 1 h [1, 12]: 0.71 %ID/g | tissue uptake at 1 h ([1]; lung, + cold (dl)3-HIPP HCl 0.53 mg/kg, read-out: radioactivity in lung): 0.92 %ID/g | tissue uptake at 1 h [1, 13]: 1.52 %ID/g | tissue uptake at 1 h [1, 14]: 0.12 %ID/g | tissue uptake at 1 h ([1]; muscle, + cold (dl)3-HIPP HCl 0.53 mg/kg, read-out: radioactivity in muscle): 0.11 %ID/g | tissue uptake at 1 h [1, 15]: 0.17 %ID/g | tissue uptake at 1 h [1, 16]: 0.48 %ID/g | tissue uptake at 1 h ([1]; spleen, + cold (dl)3-HIPP HCl 0.53 mg/kg, read-out: radioactivity in spleen): 0.5 %ID/g | tissue uptake at 1 h [1, 17]: 1.14 %ID/g | tissue uptake at 5 min ([2]; blood, radioactivity in blood): 0.08 %ID/g | tissue uptake at 1 h ([2]; blood, radioactivity in blood): 0.09 %ID/g | tissue uptake at 3 h ([2]; blood, radioactivity in blood): 0.08 %ID/g | tissue uptake at 5 min ([2]; brain, radioactivity in brain): 1.03 %ID/g | tissue uptake at 1 h ([2]; brain, radioactivity in brain): 0.82 %ID/g | tissue uptake at 5 min ([2]; heart, radioactivity in heart): 1.3 %ID/g | tissue uptake at 1 h ([2]; heart, radioactivity in heart): 0.38 %ID/g | tissue uptake at 3 h ([2]; heart, radioactivity in heart): 0.16 %ID/g | tissue uptake at 5 min [2, 18]: 2.55 %ID/g | tissue uptake at 1 h [2, 18]: 1.28 %ID/g | tissue uptake at 3 h [2, 18]: 0.75 %ID/g | tissue uptake at 5 min ([2]; liver, radioactivity in liver): 1.17 %ID/g | tissue uptake at 1 h ([2]; liver, radioactivity in liver): 0.89 %ID/g | tissue uptake at 3 h ([2]; liver, radioactivity in liver): 0.51 %ID/g | tissue uptake at 5 min ([2]; lung, radioactivity in lung): 7.34 %ID/g | tissue uptake at 1 h ([2]; lung, radioactivity in lung): 1.42 %ID/g | tissue uptake at 3 h ([2]; lung, radioactivity in lung): 0.61 %ID/g | tissue uptake at 5 min [2, 19]: 0.27 %ID/g | tissue uptake at 1 h [2, 19]: 0.16 %ID/g | tissue uptake at 3 h [2, 19]: 0.12 %ID/g | tissue uptake at 5 min [2, 20]: 0.5 %ID/g | tissue uptake at 1 h [2, 20]: 1.12 %ID/g | tissue uptake at 3 h [2, 20]: 0.66 %ID/g
SMILES: OC(Cc1cccc([125I])c1)CN1CCC(c2ccccc2)CC1 (single isomer, unassigned; (+)) [(+)-[^125 l]12, 2-Hydroxyl-3-(3-iodophenyl)-1-[1-(4-phenylpiperidinyl)]propane]

tissue uptake at 1 h [1, 3]: 0.05 %ID/g | tissue uptake at 1 h [1, 4]: 0.24 %ID/g | tissue uptake at 1 h [1, 5]: 0.87 %ID/g | tissue uptake at 1 h [1, 6]: 0.08 %ID/g | tissue uptake at 1 h [1, 7]: 0.22 %ID/g | tissue uptake at 1 h [1, 8]: 0.41 %ID/g | tissue uptake at 1 h [1, 9]: 1.87 %ID/g | tissue uptake at 1 h [1, 10]: 2.53 %ID/g | tissue uptake at 1 h [1, 11]: 1.85 %ID/g | tissue uptake at 1 h [1, 12]: 0.42 %ID/g | tissue uptake at 1 h [1, 13]: 1.01 %ID/g | tissue uptake at 1 h [1, 14]: 0.06 %ID/g | tissue uptake at 1 h [1, 15]: 0.14 %ID/g | tissue uptake at 1 h [1, 16]: 0.33 %ID/g | tissue uptake at 1 h [1, 17]: 0.88 %ID/g | tissue uptake at 5 min ([2]; blood, radioactivity in blood): 0.1 %ID/g | tissue uptake at 1 h ([2]; blood, radioactivity in blood): 0.03 %ID/g | tissue uptake at 5 min ([2]; brain, radioactivity in brain): 1.43 %ID/g | tissue uptake at 1 h ([2]; brain, radioactivity in brain): 1.29 %ID/g | tissue uptake at 5 min ([2]; heart, radioactivity in heart): 1.34 %ID/g | tissue uptake at 1 h ([2]; heart, radioactivity in heart): 0.25 %ID/g | tissue uptake at 5 min [2, 18]: 3.12 %ID/g | tissue uptake at 1 h [2, 18]: 1.86 %ID/g | tissue uptake at 5 min ([2]; liver, radioactivity in liver): 1.19 %ID/g | tissue uptake at 1 h ([2]; liver, radioactivity in liver): 2.18 %ID/g | tissue uptake at 5 min ([2]; lung, radioactivity in lung): 7.87 %ID/g | tissue uptake at 5 min [2, 19]: 0.33 %ID/g | tissue uptake at 1 h [2, 19]: 0.14 %ID/g | tissue uptake at 5 min [2, 20]: 0.92 %ID/g | tissue uptake at 1 h [2, 20]: 0.9 %ID/g
SMILES: OC(CN1CCC(c2ccccc2)CC1)c1ccc([125I])cc1 (single isomer, unassigned; (+)) [(+)-[^125 l]13, 1-(4-Iodophenyl)-2-(4-phenylpiperidinyl)ethanol]
